Series [1] can be described thus: Population PK analysis in the phase 2A HS study. It is filed as in vivo, human. To be noted: preliminary population PK analysis. Here is the method:
Blood was collected to obtain the PK samples at pre-dose, Weeks 1, 2, 4, 6, 8, and 16, and at 0.5-, 1-, 2-, and 4-hours post-dose on Week 8. The available data was analyzed using population PK modeling.

The subject of series [2] is human patients with moderate to severe hidradenitis suppurativa (HS). Briefly: Safety and tolerability in the phase 2A HS study (TEAEs, vital signs, laboratory abnormalities). The class given is in vivo. The protocol: The safety and tolerability of PF-06700841 over time was assessed using incidence of treatment-emergent adverse events (TEAEs), vital signs, incidence of specific clinical laboratory abnormalities including but not limited to hemoglobin, neutrophils, platelets, lymphocytes, lipids, eGFR, liver function tests (LFTs) and CPK.
All participants who received at least one dose of randomized study medication and have a baseline are included in the full analysis set (FAS), the population for the efficacy analysis. The safety analysis set (SAS) includes all participants who received at least one dose of investigational product. The HiSCR response data at week 16 comparing active treatment group and placebo group was to be analyzed using the Cochran Mantel Hanzel (CMH) test with Minimum Risk (MR) weight strategy after treating missing data as non-responders, adjusting for the stratification factor of prior anti-TNF failure status. Due to very small number of participants with concomitant use of antibiotics status at baseline in some subgroups, this was not included as stratum factor in the model. Hochberg's step-up procedure was employed to address any multiplicity arising from the analysis of 3 different treatments within the same study and overall familywise error rate was controlled at 0.1 level. All the continuous secondary endpoints were analyzed using ANCOVA model, where missing observation were imputed using multiple imputation (MI) method.

Series [3] has the same test system. The experiment in a line: Phase 2A double-blind, parallel group study of efficacy vs placebo in hidradenitis suppurativa. It is filed as in vivo. The source says:
This study provided data on efficacy, safety, tolerability, and pharmacokinetics of the therapeutic agents being examined in the oral treatment of moderate to severe HS. […] This included an up-to-6-week Screening Period, a 16-week Dosing Period and a 4-week Follow-up Period. The study enrolled a total of approximately 192 participants (expected to provide approximately 156 completers). Following the screening period, participants who meet eligibility criteria at the baseline visit were randomly assigned to receive 1 of 6 treatments. One oral dose level of each therapeutic agent, one of which was [(1S)-2,2-difluorocyclo-propyl][(1R,5S)-3-{2-[(1-methyl-1H-pyrazol-4-yl)amino]pyrimidin-4-yl}-3,8-diazabicyclo[3.2.1]oct-8-yl]methanone (45 mg QD), or matching placebo in a 3:1 ratio was investigated. For analysis, placebo groups were combined to yield final therapeutic agent:placebo ratio of 1:1:1:1 for each therapeutic agent and pooled placebo. No more than 30% of enrolled participants were inadequate anti-TNF responders. Participants were stratified according to whether they were an inadequate anti-TNF responder or not.
Additionally, no more than 20% of enrolled participants entered the study on a background of concomitant oral antibiotic therapy for treatment of HS; the dosing regimen (dose and frequency) must have been stable for at least 8 weeks (56 days) prior to the baseline (Day 1) visit and remained stable throughout study participation. Antibiotics taken on an “as needed” (PRN) basis were not considered a stable dose. Participants were stratified according to whether they were on a background of concomitant antibiotic therapy or not. The chronic toxicology package for each asset supported the planned study treatment duration of 16 weeks. Hidradenitis suppurative clinical response, the primary endpoint used, is defined as: […]
at least a 50% reduction in the total abscess and inflammatory nodule (AN) count relative to baseline, and no increase in abscess count, and no increase in draining fistula count.
The above Examples were a phase 2A double-blind, parallel group study assessing the efficacy of PF-06700841, a dual inhibitor of human tyrosine kinase 2 (TYK2) and Janus kinase 1 (JAK1), compared to Placebo in human patients with moderate to severe hidradenitis suppurativa (HS).
This was a randomized, double-blind, parallel-group multi-center study that enrolled approximately 192 participants with moderate to severe HS (with approximately 156 completers). Participants were randomized to PF-06700841 (along with two other treatments studied contemporaneously) and matching placebo in a 3:1 ratio. Each randomized participant was followed for a 16-week dosing period and a 4-week follow-up period. For analysis, placebo groups were combined to yield a 1:1:1:1 ratio for each treatment and pooled placebo. No more than 30% participants were enrolled with inadequate anti-TNF response and no more that 20% of the participants were on background antibiotic therapy, and stratified randomization strategy was adopted for this study. Efficacy data from all randomized participants until week 16 are in the scope of this report.
The primary objective of the study was to evaluate the efficacy and safety of PF-06700841 vs placebo in participants with HS. The primary efficacy endpoint was percentage of participants with HiSCR response (50% reduction from baseline in abscess and inflammatory nodule (AN) count, with no increase in abscess and draining fistula count from baseline) at week 16. […]

The test system of series [4] is patients with moderate to severe HS. To be noted: cited from earlier work.

“And” between values parts separate entries of the source, which are not always exact repeats. Equal entries are not always repeated.

On to `Cn1cc(Nc2nccc(N3C[C@H]4CC[C@@H](C3)N4C(=O)[C@@H]3CC3(F)F)n2)cn1` [PF-06700841, [(1S)-2,2-difluorocyclo-propyl][(1R,5S)-3-{2-[(1-methyl-1H-pyrazol-4-yl)amino]pyrimidin-4-yl}-3,8-diazabicyclo[3.2.1]oct-8-yl]methanone], for which the “Exposures in HS compared to healthy or other patient populations” value in series [1] is listed as “expected exposures in HS appear to be achieved”. Besides, in series [2] (16-week dosing), the Safety and tolerability entry is “generally safe and well tolerated”. In series [2] (in vivo), the “Deaths or cases of herpes zoster/simplex in the study” value is “no deaths or cases of herpes zoster/simplex”; the “Severity of the majority of treatment-emergent adverse events (TEAEs)” value is “mild and moderate”. Further, the “Hazard ratio for time to first flare” value in series [3] (Cox proportional model, vs placebo) is given as 0.4. Besides, in series [3] (PGA-Skin Pain NRS at worst, participants with baseline score 3, LOCF), the “Difference from placebo in Skin Pain NRS30 response rate at week 16” value is 6.5%. Also, in series [3] (at 16 weeks, FAS, versus placebo), the “Probability of flare, Kaplan Meier plot of time to first flare (FIG. 5)” value was “lowest probability of flare at 16 weeks”. In addition, in series [3] (baseline Hurley Stage II, week 16), the “HiSCR response rate at week 16 among Hurley Stage II participants” value turned out to be 59.4%. For the same compound, the “HiSCR response rate at week 16 among Hurley Stage III participants” value in series [3] (baseline Hurley Stage III, week 16) is reported as 40%. Also, in series [3] (difference from placebo, week 16), the “More participants compared to placebo achieving total AN count of 0, 1 or 2 at week 16” value turned out to be 15.6%. In addition, in series [3] (flare = at least 25% increase in AN count with minimum increase of 2 relative to baseline), the “Difference from placebo (δ) in percentage of participants experiencing at least one flare by week 16” value is recorded as −22.3%. Moreover, the “Percentage of Participant Achieving HISCR Response at Week 16, Overall Response n/N (%)” value in series [3] (overall population, FAS, NRI, week 16, 45 mg QD oral) was 51.9% and 27/52 (51.9) %. Moreover, the “Difference from Placebo in percent change from baseline at week 16 for the IHS4 score” value in series [3] (week 16) is −14.6%. Moreover, in series [3] (week 16, versus placebo), the “HiSCR response over time, plot (FIG. 2)” value is “highest response at week 16”.

Consider adalimumab, for which, in series [4] (Week 12, PIONEER II only), the “Rank-ordered secondary outcomes (lesions, pain, modified Sartorius score) vs placebo” value is recorded as “significantly greater improvement than the placebo groups”. Further, the “Clinical response rate (HiSCR) at Week 12, PIONEER I” value in series [4] (adalimumab weekly, PIONEER I, Week 12) is on record as 41.8%. Also, in series [4] (adalimumab weekly, PIONEER II, Week 12), the “Clinical response rate (HiSCR) at Week 12, PIONEER II” value is on record as 58.9%.

Values taken from US20230293544A1, “METHODS, DOSAGE REGIMENS, AND COMPOSITIONS FOR TREATING HIDRADENITIS” (PFIZER INC., priority 2022, published 2023).
